Measured values: patent US12234221B2, “Pyridine carboxamide compounds for inhibiting NAV1.8” (Lieber Institute, Inc., priority 2018, dated 2025)

Biological target: T1, human Nav1.8 (hNav1.8) ion channel (Homo sapiens, UniProt Q9Y5Y9)
T1 construct: expressed in transfected cells; host or cells: HEK293
Test: Nav1.8 channel inhibition, estimated IC50 (one or more of: fluorescence inhibition assay, PatchXpress, IonFlux HT automated patch clamp)
Type: cell-based
Conditions: HEK293 cells stably expressing hNav1.8; method used per compound not stated; read-out: Activity range (estimated IC50)
Description: The ability of pyridine carboxamide derivatives exemplified above to inhibit the Nav1.8 channel was determined using one or more of the methods described below.
HEK Nav1.8 β1/β2 Stably Expressing Cell Line
A HEK293 cell line stably expressing the human Nav1.8 (hNav1.8) ion channel with β1/β2 subunits was constructed. The cell line is suitable for IC50 determination in fluorescence and electrophysiological based assays. It is also suitable to form mechanism of action pharmacology studies in electrophysiological assays. HEK293 Nav 1.8 cells are grown as adherent monolayers in DMEM/high glucose media, 10% fetal bovine serum, Na pyruvate (2 mM), Hepes (10 mM) with selection agents G418 (400 mg/L) and puromycin (0.5 mg/L) at 37 degrees C., 10% CO2.
Nav 1.8 Fluorescence Inhibition Assay
Compounds were made up to or supplied as a 10-mM stock solution using DMSO as the vehicle. Concentration-response curves were generated using a Matrix multichannel pipettor. Compound source plates were made by diluting 10 mM compound stocks to create 500 μM (100×) solutions in DMSO in 96-well v-bottom plates. Compounds were then serially diluted in 100% DMSO to generate a 5 point, 4-fold dilution scheme dose response curve. 2 μL of the 100× dose response curves was then added to preincubation and stimulation assay plates. 100 μL of pre-incubation buffer and 200 μL of stimulation buffer were then added to the plates resulting in a final assay test concentration range of 5 μM to 0.02 μM with a final DMSO concentration of 1%.
On the day of assay, plates were washed to remove cell culture media using 2K EBSS buffer (135 mM NaCl, 2 mM KCl, 5 mM Glucose, 2 mM CaCl2), 1 mM MgCl2, 10 mM HEPES, pH 7.4). The Na-sensitive fluorescent dye, Asante Natrium Green-2 (ANG-2) is incubated for 60 min to allow equilibration and then washed with 2K EBSS. Plates are the transferred to a fluorescence plate reader (FLIPR™, Molecular Devices) for fluorescence measurement using an excitation wavelength of 490 nm and an emission wavelength of 565 nm. Compounds are pre-incubated at for 5 min at final test concentration in the presence of ouabain (30 μM) to inhibit Na+ efflux through Na+/K+ exchanger. Following the pre-incubation phase, hNav1.8 channels are stimulated with 10 μM of the pyrethroid deltamethrin to prevent channel inactivation. The assay was run for 15 min with vehicle and 30 μM tetracaine serving as negative and positive controls, respectively. The peak change in fluorescence relative to negative and positive control wells was calculated and fit with a logistic equation to determine IC50.
PatchXpress Nav 1.8 Inhibition Assay
HEK-Nav1.8 β1/β2 cells were recorded in whole cell patch-clamp using the PatchXpress automated patch clamp platforms (Molecular Devices). Cells suspensions were obtained by trypsinization of adherent monolayers, followed by gentle rocking for minimally 30 min. Compounds were prepared from 10 mM DMSO stocks.
Nav1.8 channel variants were evaluated using Protocol 1 (FIG. 2) in which cells were initially voltage clamped at a holding potential of −100 mV to maintain Nav1.8 in a closed resting state. After current amplitude becomes stable, the mid-point voltage of steady state inactivation was determined for each cell using a series of 5 sec conditioning steps to increasingly depolarized voltages (−100 to 0 mV) The holding potential was then reset to a voltage that produces ˜50% inactivation (Vhalf−set automatically via PatchXpress scripts) so that closed and inactivated channel inhibition can be assessed. Protocol 1 was run at a frequency of 0.1 Hz until current amplitude is steady (automatically determined by PatchXpress scripts). The effect of test reagent on Nav current amplitude was monitored using custom PatchXpress stability scripts which determines the timing of compound addition and washout. Data were processed and analyzed using DataXpress 2.0 (Molecular Devices). […]

T1 sequence (Q9Y5Y9 whole entry): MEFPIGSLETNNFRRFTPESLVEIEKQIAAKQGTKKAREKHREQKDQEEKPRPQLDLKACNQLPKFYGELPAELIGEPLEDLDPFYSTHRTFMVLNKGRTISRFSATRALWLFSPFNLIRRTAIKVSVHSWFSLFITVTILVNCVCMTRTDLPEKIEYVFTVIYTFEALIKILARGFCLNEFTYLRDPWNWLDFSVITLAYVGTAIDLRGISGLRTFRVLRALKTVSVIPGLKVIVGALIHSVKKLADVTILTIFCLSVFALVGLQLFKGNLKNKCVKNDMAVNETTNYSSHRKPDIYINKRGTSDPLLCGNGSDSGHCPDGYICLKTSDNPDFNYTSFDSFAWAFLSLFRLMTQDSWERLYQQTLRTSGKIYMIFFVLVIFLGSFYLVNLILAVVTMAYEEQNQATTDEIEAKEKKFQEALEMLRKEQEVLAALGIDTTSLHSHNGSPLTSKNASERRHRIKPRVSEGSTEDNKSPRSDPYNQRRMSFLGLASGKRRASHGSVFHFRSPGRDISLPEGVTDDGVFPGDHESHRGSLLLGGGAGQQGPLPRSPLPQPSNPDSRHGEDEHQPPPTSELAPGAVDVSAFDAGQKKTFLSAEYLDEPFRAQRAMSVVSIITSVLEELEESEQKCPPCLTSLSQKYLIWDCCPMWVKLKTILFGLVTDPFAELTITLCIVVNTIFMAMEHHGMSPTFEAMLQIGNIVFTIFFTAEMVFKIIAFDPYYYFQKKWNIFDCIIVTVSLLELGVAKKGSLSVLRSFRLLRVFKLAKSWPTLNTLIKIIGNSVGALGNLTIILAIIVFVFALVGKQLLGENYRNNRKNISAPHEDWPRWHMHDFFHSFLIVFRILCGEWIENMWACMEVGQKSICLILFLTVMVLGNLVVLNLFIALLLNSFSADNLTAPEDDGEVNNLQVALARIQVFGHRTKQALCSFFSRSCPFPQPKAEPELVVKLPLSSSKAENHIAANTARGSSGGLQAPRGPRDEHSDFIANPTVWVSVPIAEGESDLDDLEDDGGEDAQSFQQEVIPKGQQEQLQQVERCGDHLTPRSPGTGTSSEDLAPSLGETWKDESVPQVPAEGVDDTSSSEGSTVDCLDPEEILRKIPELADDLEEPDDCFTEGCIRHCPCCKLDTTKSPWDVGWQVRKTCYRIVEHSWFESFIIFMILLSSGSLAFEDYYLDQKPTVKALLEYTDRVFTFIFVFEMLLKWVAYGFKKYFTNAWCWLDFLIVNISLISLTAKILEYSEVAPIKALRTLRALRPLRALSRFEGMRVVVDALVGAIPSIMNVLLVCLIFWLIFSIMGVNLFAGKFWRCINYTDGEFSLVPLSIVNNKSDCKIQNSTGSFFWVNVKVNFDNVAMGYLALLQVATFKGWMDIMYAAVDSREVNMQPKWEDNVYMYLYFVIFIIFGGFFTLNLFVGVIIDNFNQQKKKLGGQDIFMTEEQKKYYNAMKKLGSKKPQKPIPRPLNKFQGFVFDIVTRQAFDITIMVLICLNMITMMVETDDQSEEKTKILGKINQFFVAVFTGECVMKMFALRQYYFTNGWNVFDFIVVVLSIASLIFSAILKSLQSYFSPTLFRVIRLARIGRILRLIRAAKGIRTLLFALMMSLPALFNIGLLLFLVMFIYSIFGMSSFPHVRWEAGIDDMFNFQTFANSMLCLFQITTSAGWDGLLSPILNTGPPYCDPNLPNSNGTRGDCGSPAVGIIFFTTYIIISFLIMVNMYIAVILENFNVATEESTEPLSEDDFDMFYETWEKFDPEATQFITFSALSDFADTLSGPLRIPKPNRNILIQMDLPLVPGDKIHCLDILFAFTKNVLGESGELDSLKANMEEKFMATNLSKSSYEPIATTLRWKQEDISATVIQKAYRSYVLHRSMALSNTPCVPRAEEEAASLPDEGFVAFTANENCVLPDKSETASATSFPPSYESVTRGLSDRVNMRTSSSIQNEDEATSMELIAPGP

SMILES	IC50 [µM]
COc1cc(F)ccc1Oc1nc(OC)c(F)cc1C(=O)Nc1cccc(S(C)(=O)=O)c1 [Example 178, 5-fluoro-2-(4-fluoro-2-methoxy-phenoxy)-6-methoxy-N-(3-methylsulfonylphenyl)pyridine-3-carboxamide]	< 0.5
CS(=O)(=O)c1cccc(NC(=O)c2cc(C(F)(F)F)cnc2Oc2ccc(F)c(F)c2)c1 [Example 47, 2-(3,4-difluorophenoxy)-N-(3-methylsulfonyl-phenyl)-5-(trifluoromethyl)pyridine-3-carboxamide]	< 0.5
COc1cc(F)ccc1Oc1ncc(C(F)(F)F)cc1C(=O)Nc1ccnc(C)c1 [Example 17, 2-(4-fluoro-2-methoxy-phenoxy)-N-(2-methyl-4-pyridyl)-5-(trifluoromethyl)pyridine-3-carboxamide]	> 1
CCS(=O)(=O)c1cccc(NC(=O)c2cc(C(F)(F)F)cnc2Oc2ccc(OC(F)(F)F)cc2Cl)c1 [Example 143, 2-[2-chloro-4-(trifluoromethoxy)phenoxy]-N-(3-ethylsulfonylphenyl)-5-(trifluoromethyl)pyridine-3-carboxamide]	0.5 to 1
COc1ccc(NC(=O)c2cc(C(F)(F)F)cnc2Oc2ccc(OC(F)(F)F)cc2Cl)cn1 [Example 156, 2-[2-chloro-4-(trifluoromethoxy)phenoxy]-N-(6-methoxy-3-pyridyl)-5-(trifluoromethyl)pyridine-3-carboxamide]	0.5 to 1
CS(=O)(=O)c1cccc(NC(=O)c2cc(C(F)(F)F)cnc2Oc2ccccc2)c1 [Example 41, N-(3-methylsulfonyl-phenyl)-2-phenoxy-5-(trifluoromethyl)pyridine-3-carboxamide]	> 1
COc1cc(F)ccc1Oc1ncc(C(F)(F)F)cc1C(=O)Nc1cccc(-c2cnco2)c1 [Example 9, 2-(4-fluoro-2-methoxy-phenoxy)-N-(3-oxazol-5-ylphenyl)-5-(trifluoromethyl)pyridine-3-carboxamide]	> 1
CS(C)(=O)=Nc1cccc(NC(=O)c2cc(C(F)(F)F)cnc2Oc2ccc(OC(F)(F)F)cc2)c1 [Example 129, N-[3-[[dimethyl(oxo)-λ^6-sulfanylidene]amino]phenyl]-2-[4-(trifluoromethoxy)phenoxy]-5-(trifluoromethyl)pyridine-3-carboxamide]	> 1
COc1cc(F)ccc1Oc1ncc(Cl)cc1C(=O)Nc1cccc(S(C)(=O)=O)c1 [Example 119, 5-chloro-2-(4-fluoro-2-methoxy-phenoxy)-N-(3-methylsulfonylphenyl)pyridine-3-carboxamide]	0.5 to 1
Cc1cc(NC(=O)c2cc(C(F)(F)F)cnc2Oc2ccc(OC(F)(F)F)cc2Cl)ccn1 [Example 164, 2-[2-chloro-4-(trifluoromethoxy)phenoxy]-N-(2-methyl-4-pyridyl)-5-(trifluoromethyl)pyridine-3-carboxamide]	< 0.5
CS(=O)(=O)c1cccc(NC(=O)c2cnc(C(F)(F)F)cc2Oc2ccc(OC(F)(F)F)cc2Cl)c1 [Example 74, 4-[2-chloro-4-(trifluoromethoxy)phenoxy]-N-(3-methylsulfonylphenyl)-6-(trifluoromethyl)pyridine-3-carboxamide]	< 0.5
Cc1cc(F)ccc1Oc1ncc(C(F)(F)F)cc1C(=O)Nc1ccc[n+]([O-])c1 [Example 133, 2-(4-fluoro-2-methyl-phenoxy)-N-(1-oxidopyridin-1-ium-3-yl)-5-(trifluoromethyl)pyridine-3-carboxamide]	> 1
COc1ccc(Oc2ncc(C(F)(F)F)cc2C(=O)Nc2ccc[n+]([O-])c2)c(OC)c1 [Example 137, 3-(2-(2,4-dimethoxyphenoxy)-5-(trifluoromethyl)nicotinamido)pyridine 1-oxide]	< 0.5
Cc1cc(F)ccc1Oc1cc(C(F)(F)F)ncc1C(=O)Nc1ccc[n+]([O-])c1 [Example 85, 4-(4-fluoro-2-methyl-phenoxy)-N-(1-oxidopyridin-1-ium-3-yl)-6-(trifluoromethyl)pyridine-3-carboxamide]	0.5 to 1

Further lines, results first:

IC50 [µM]	SMILES
< 0.5	CS(=O)(=O)c1cccc(NC(=O)c2cc(Cl)cnc2Oc2ccc(OC(F)(F)F)cc2)c1 [Example 181, 5-chloro-N-(3-methylsulfonylphenyl)-2-[4-(trifluoromethoxy)phenoxy]pyridine-3-carboxamide]
0.5 to 1	Cc1ccc(S(C)(=O)=O)cc1NC(=O)c1cc(C(F)(F)F)cnc1Oc1ccc(OC(F)(F)F)cc1Cl [Example 168, 2-[2-chloro-4-(trifluoromethoxy)phenoxy]-N-(2-methyl-5-methylsulfonyl-phenyl)-5-(trifluoromethyl)pyridine-3-carboxamide]
< 0.5	COc1cc(F)ccc1Oc1ncc(OC(F)F)cc1C(=O)Nc1cccc(S(C)(=O)=O)c1 [Example 179, 5-(difluoromethoxy)-2-(4-fluoro-2-methoxy-phenoxy)-N-(3-methylsulfonylphenyl)pyridine-3-carboxamide]
< 0.5	O=C(Nc1cc[n+]([O-])cc1)c1cc(C(F)(F)F)cnc1Oc1ccc(OC(F)(F)F)cc1 [Example 141, N-(1-oxidopyridin-1-ium-4-yl)-2-[4-(trifluoromethoxy)phenoxy]-5-(trifluoromethyl)pyridine-3-carboxamide]
> 1	CS(=N)(=O)c1cccc(NC(=O)c2cnc(C(F)(F)F)cc2Oc2ccc(F)cc2F)c1 (stereo not drawn) [Example 103, 4-(2,4-difluorophenoxy)-N-[3-(methylsulfonimidoyl)phenyl]-6-(trifluoromethyl)pyridine-3-carboxamide]
> 1	Cn1ncnc1NC(=O)c1cc(C(F)(F)F)cnc1Oc1ccc(OC(F)(F)F)cc1Cl [Example 169, 2-[2-chloro-4-(trifluoromethoxy)phenoxy]-N-(2-methyl-1,2,4-triazol-3-yl)-5-(trifluoromethyl)pyridine-3-carboxamide]
< 0.5	CS(=N)(=O)c1cccc(NC(=O)c2cc(C(F)(F)F)cnc2Oc2ccc(OC(F)F)cc2)c1 (stereo not drawn) [Example 59, 2-[4-(difluoromethoxy)phenoxy]-N-[3-(methylsulfonimidoyl)phenyl]-5-(trifluoromethyl)pyridine-3-carboxamide]
> 1	CC(C)Oc1ccccc1Oc1ncc(C(F)(F)F)cc1C(=O)Nc1cccc(S(C)(=O)=O)c1 [Example 27, 2-(2-isopropoxyphenoxy)-N-(3-methylsulfonylphenyl)-5-(trifluoromethyl)pyridine-3-carboxamide]
> 1	COc1cc(F)ccc1Oc1ncc(C(F)(F)F)cc1C(=O)Nc1nc2ccccc2s1 [Example 11, N-(1,3-benzothiazol-2-yl)-2-(4-fluoro-2-methoxy-phenoxy)-5-(trifluoromethyl)pyridine-3-carboxamide]
0.5 to 1	COc1cc(F)ccc1Oc1ncc(C(F)(F)F)cc1C(=O)Nc1ccnnc1 [Example 19, 2-(4-fluoro-2-methoxy-phenoxy)-N-pyridazin-4-yl-5-(trifluoromethyl)pyridine-3-carboxamide]
> 1	O=C(Nc1ccnnc1)c1cnc(C(F)(F)F)cc1Oc1ccc(F)cc1F [Example 100, 4-(2,4-difluorophenoxy)-N-pyridazin-4-yl-6-(trifluoromethyl)pyridine-3-carboxamide]
> 1	CN(C)S(=O)(=O)c1cccc(NC(=O)c2cc(C(F)(F)F)cnc2Oc2ccc(OC(F)(F)F)cc2Cl)c1 [Example 154, 2-[2-chloro-4-(trifluoromethoxy)phenoxy]-N-[3-(dimethylsulfamoyl)phenyl]-5-(trifluoromethyl)pyridine-3-carboxamide]
< 0.5	O=C(Nc1ccc[n+]([O-])c1)c1cnc(C(F)(F)F)cc1Oc1ccc(OC(F)(F)F)cc1 [Example 87, N-(1-oxidopyridin-1-ium-3-yl)-4-[4-(trifluoromethoxy)phenoxy]-6-(trifluoromethyl)pyridine-3-carboxamide]
